Data on 37 compounds can be found in ChEMBL document CHEMBL1128002, “Selective inhibitors of protein kinase C in a model of graft-vs-host disease” (Bioorg Med Chem Lett, 1994).

The species entered for assay [1] is Rattus norvegicus. As to the kind of experiment: (§1) Inhibitory activity against graft vs host disease in rat. The assay is classed as functional.
Assay [2] can be described thus: (§2) Inhibitory activity against protein kinase C from Jurkat cells. The assay is classed as cell-based.
The species entered for assay [3] is Rattus norvegicus. Described as §1. It counts as functional, organism-based.
A short description of assay [4]: as §2. It counts as cell-based. Set-up: concentration or dose not given beside the values. To be noted: dose or concentration not given here.

Where only a bound is given, the exact number is not on record here.

Regarding `O=C1ON=C(c2cccs2)/C1=C/c1cccc(O)c1`, the Inhibition (in general, the change of the read-out against control, counted positive when it falls) in the assay listed under Rattus norvegicus [1] is 58%. Further, in assay [2], the IC50 (usually the concentration that gives 50% inhibition) turned out to be 9.9 µM.
As for `COc1ccc(/C=C2\C(=O)ON=C2c2cccs2)cc1`, in the assay listed under Rattus norvegicus [1], the Inhibition stood at 96%. Moreover, the values for the IC50 (in the assay filed under Rattus norvegicus [3]; in assay [2]) were 2.5 µM and 1.2 µM, respectively. For the same compound, the inhibition – broadly, the percentage by which the read-out fell short of the control – in assay [4] was 89%.
In turn, `Cn1cc(/C=C2\C(=O)ON=C2c2cccs2)c2ccccc21` returned an inhibition in assay [4] of 21%.
The same measure, in the same setting: for `Nc1ccc(C2=NOC(=O)/C2=C\c2cccs2)cc1` the value was 0%.
On to `O=C1ON=C(c2cccs2)/C1=C/c1ccc(O)cc1`, for which the Inhibition in the assay filed under Rattus norvegicus [1] stood at 87%. Further, the results for the concentration for half-maximal inhibition (IC50) (in the assay filed under Rattus norvegicus [3]; in assay [2]) were 4.2 µM and 3.5 µM, respectively. The compound further showed an inhibition in assay [4] of 93%.
The corresponding values for `CN(C)c1ccc(/C=C2\C(=O)ON=C2c2cccs2)cc1` are 89%, 4.2 µM, 2.1 µM and 88%.
With `O=C1ON=C(c2cccs2)C1=CC=Cc1ccccc1`, in the assay filed under Rattus norvegicus [1], the Inhibition was determined as 93%. Besides, the IC50 turned out to be 3 µM in the assay filed under Rattus norvegicus [3] and 1 µM in assay [2].
Consider `O=C1ON=C(c2cccs2)/C1=C/c1ccc(O)c(O)c1`, for which the Inhibition in the assay listed under Rattus norvegicus [1] is recorded as 87%. Further, the IC50 worked out at 3.4 µM in the assay listed under Rattus norvegicus [3] and 3.5 µM in assay [2].
The corresponding values for `O=C(O)COc1ccc(/C=C2\C(=O)ON=C2c2cccs2)cc1` are -7%, 100 µM and 8.2 µM.
Take `O=C1ON=C(c2cccs2)/C1=C/c1ccc(Br)cc1`: in the assay filed under Rattus norvegicus [1], the Inhibition is listed as 91%. The inhibition in assay [4] came out at 100%. Also, half-maximal inhibition in assay [2] (IC50) required 84 µM.
As to `COc1ccccc1C1=NOC(=O)/C1=C\c1cccs1`, the Inhibition in the assay listed under Rattus norvegicus [1] turned out to be 66%. The half-maximal inhibitory concentration (IC50) in the assay filed under Rattus norvegicus [3] stood at 7.1 µM; in assay [2] it was 1.2 µM. Further, in assay [4], the inhibition stood at 100%.
The matching figures for `O=C1ON=C(c2cccs2)/C1=C/c1cccs1`: 97%, 3.7 µM, 1 µM and 100%.
With `COc1ccc(C2=NOC(=O)/C2=C\c2cccs2)cc1`, the Inhibition in the assay listed under Rattus norvegicus [1] amounted to 44%. Further, the IC50 in the assay listed under Rattus norvegicus [3] is 11 µM; in assay [2], 0.7 µM. Further, the inhibition in assay [4] worked out at 100%.
As for `Oc1onc(-c2cccs2)c1/C=C1/C=Nc2ccccc21`, in assay [4], the inhibition amounted to 48%.
`O=C1ON=C(c2ccccc2)/C1=C/c1ccccc1`: the half-maximal inhibitory concentration (IC50) in assay [2] was 14 µM.
In the case of `COc1ccc(OC)c(C2=NOC(=O)/C2=C\c2cccs2)c1`, the Inhibition in the assay listed under Rattus norvegicus [1] is 59%. Besides, the half-maximal inhibitory concentration (IC50) in the assay filed under Rattus norvegicus [3] came to 7.9 µM; in assay [2], 1.9 µM. This compound also yielded an inhibition in assay [4] of 100%.
`CC1=CC(C)=N/C1=C/c1c(-c2cccs2)noc1O`: the inhibition in assay [4] was 19%.
For `COc1cc(/C=C2\C(=O)ON=C2c2cccs2)ccc1OC(C)=O`, the Inhibition in the assay filed under Rattus norvegicus [1] amounted to 43%. For the same compound, the inhibition in assay [4] was found to be 82%. Half-maximal inhibition in assay [2] (IC50) was put at 11 µM.
Consider `Cc1cc(/C=C2\C(=O)ON=C2c2cccs2)cc(C)c1O`, for which the IC50 in the assay filed under Rattus norvegicus [3] was 2.6 µM; in assay [2], 2.5 µM.
Consider `O=C1ON=C(c2cccs2)/C1=C/c1ccccc1O`, for which the Inhibition in the assay listed under Rattus norvegicus [1] was 87%. Also, the IC50 in the assay filed under Rattus norvegicus [3] was 5.7 µM; in assay [2], 5.5 µM.
Turning to `O=C1ON=C(c2ccccc2)/C1=C/c1ccco1`, the Inhibition in the assay listed under Rattus norvegicus [1] was found to be 89%. The half-inhibitory concentration (IC50) was 2.9 µM in the assay filed under Rattus norvegicus [3] and 0.9 µM in assay [2]. The inhibition in assay [4] turned out to be 84%.
The corresponding values for `CC(=O)Oc1ccc(/C=C2\C(=O)ON=C2c2cccs2)cc1` are 65%, 4.5 µM, 11 µM and 81%.
The corresponding values for `O=C1ON=C(c2cccs2)/C1=C/c1ccco1` are 88%, 5.8 µM, 1.4 µM and 100%.
The corresponding values for `Cc1cc(O)cc(C)c1/C=C1\C(=O)ON=C1c1cccs1` are 88%, 1.6 µM, 5.3 µM and 78%.
For `O=C1ON=C(c2cccs2)/C1=C/c1ccc(Cl)cc1`, the Inhibition in the assay filed under Rattus norvegicus [1] is on record as 71%. Besides, the figures for the IC50 (in the assay listed under Rattus norvegicus [3]; in assay [2]) were 6.2 µM and 11 µM, respectively. In assay [4], the inhibition is 82%.
As for `O=C1ON=C(c2ccccc2O)/C1=C/c1cccs1`, in the assay listed under Rattus norvegicus [1], the Inhibition turned out to be 20%. The compound also displayed an IC50 in assay [2] of 25 µM.
For `Oc1onc(-c2cccs2)c1/C=C1\C=CC=N1`, the inhibition in assay [4] was determined as 8.9%.
As to `O=C1ON=C(c2cccs2)/C1=C/c1cccc(Cl)c1`, in assay [4], the inhibition stood at 24%. In assay [2], the IC50 is 23 µM.
Take `COc1cccc(/C=C2\C(=O)ON=C2c2cccs2)c1`: the Inhibition in the assay filed under Rattus norvegicus [1] worked out at 66%. The compound also displayed an inhibition in assay [4] of 65%. 22 µM corresponded to half-maximal inhibition in assay [2] (IC50).
As to `O=C1ON=C(c2cccs2)/C1=C/c1ccc(F)cc1`, the Inhibition in the assay filed under Rattus norvegicus [1] is 92%. Further, the half-inhibitory concentration (IC50) in the assay listed under Rattus norvegicus [3] worked out at 4.8 µM; in assay [2] it was 8.8 µM. This compound showed an inhibition in assay [4] of 98%.
Turning to `O=C1ON=C(c2ccc([N+](=O)[O-])cc2)/C1=C/c1cccs1`, the inhibition in assay [4] was 0%.
Regarding `O=C1ON=C(c2cccs2)/C1=C/c1ccoc1`, the Inhibition in the assay filed under Rattus norvegicus [1] is given as 94%. The half-inhibitory concentration (IC50) in the assay listed under Rattus norvegicus [3] came out at 3.6 µM; in assay [2], 1.7 µM. In assay [4], this compound came in with an inhibition of 100%.
On to `O=C1ON=C(c2cccs2)/C1=C/c1ccsc1`, for which the Inhibition in the assay filed under Rattus norvegicus [1] is recorded as 95%. The IC50 in the assay listed under Rattus norvegicus [3] came out at 3 µM; in assay [2], 2.9 µM. This compound yielded an inhibition in assay [4] of 100%.
As for `CC(C)(C)c1cc(/C=C2\C(=O)ON=C2c2cccs2)cc(C(C)(C)C)c1O`, in assay [2], the IC50 came to 35 µM.
`COc1cc(/C=C2\C(=O)ON=C2c2cccs2)cc(OC)c1O`: the Inhibition in the assay filed under Rattus norvegicus [1] was determined as 72%. This compound also registered an IC50 in assay [2] of 11 µM.
As to `O=C1ON=C(c2cccs2)/C1=C/c1ccccc1`, in the assay filed under Rattus norvegicus [1], the Inhibition is 88%. Further, the figures for the IC50 (in the assay listed under Rattus norvegicus [3]; in assay [2]) were 4.4 µM and 15 µM, respectively. The compound further returned an inhibition in assay [4] of 81%.
`COc1ccc(/C=C2\C(=O)ON=C2c2cccs2)c(OC)c1` displayed an inhibition in assay [4] of 35%. Further, the IC50 in assay [2] is greater than 100 µM.
